Read-outs that look alike come from different tables or passages of the source.
How the values were obtained:
[1] = molecular target: T1, Porcine pancreatic phospholipase A2 (Sus scrofa, UniProt P00592); assay: Phospholipase A2 inhibitory activity, method A (egg yolk lecithin substrate); format: biochemical; conditions: 1,000 ppm, 37°C for 30 minutes, read-out: % inhibition of PLA2 (1,000 ppm)
T1 construct: purchased Boehringer Mannheim·Yamanouchi K.K. 161454·122416
Method: To 10 mg of egg yolk lecithin (manufactured by Wako Pure Chemical Industries Ltd.), 1 ml of glycerine, 2 ml of a 50 mM Tris-HCl buffer solution (pH7.5) [Tris(hydroxymethyl)aminomethane (manufactured by Nacalai Tesque K.K.) was adjusted to pH7.5 with hydrochloric acid], 0.5 ml of a 150 mM calcium chloride solution (calcium chloride was dissolved in a 50 mM Tris-HCl buffer solution) and 0.5 ml of a 0.05% Triton-X100 (manufactured by Nacalai Tesque K.K.) solution (Triton-X100 was dissolved in a 50 mM Tris-HCl buffer solution), were added and dispersed by an agate mortar or dispersed by an ultrasonic processor (Model W-225, manufactured by Heat System-Ultrasonics, Inc.) for 5 minutes (30W) to obtain a substrate.
(§1) Porcine pancreatic phospholipase A2 [(161454·122416) manufactured by Boehringer Mannheim·Yamanouchi K.K.] was used.
To a 96 well microtitration plate (flat bottom, manufactured by Sumitomo Bakelite Medical Co., Ltd.), 40 µl of the substrate, 5 µl of a solution prepared by dissolving 10 mg of a test compound in 500 µl of dimethylsulfoxide, followed by an addition of 500 µl of a 50 mM Tris-HCl buffer solution, and 5 µl of an enzyme solution of 20 ng/ml (prepared by diluting the enzyme in a 50 mM Tris-HCl buffer solution), were added and reacted at 37°C for 30 minutes. After termination of the reaction, the released free fatty acid was quantitatively analyzed in accordance with the ACS-ACOD (acyl CoA synthetase-acyl CoA oxidase) method [a kit of NEFA C test wako (manufactured by Wako Pure Chemical Industries, Ltd.) was used]. The quantitative analysis was made by means of Microplate ELISA Reader (Model 2550EIA Reader, manufactured by Bio-Rad Laboratories) at a wavelength of 540 nm. Separately, such experiments as mentioned above, were carried out at various concentrations (2 µg/ml, 1 µg/ml and 0.5 µg/ml) of phospholipase A2 without a test compound. Then, the concentration of the free fatty acid versus the concentration of phospholipase A2 was plotted.
(§2) From this standard curve, the apparent concentration of phospholipase A2 in the case with a test compound, was read. Then, the percent inhibition of the enzyme was calculated by the following formula. Percent inhibition (%) = (l -(A)/(B)) x 100 [formula] • A: Apparent enzyme concentration when a test compound is added. • B: True enzyme concentration when a test compound is added.

[2] = test system: experimental acute pancreatitis model; assay: Effects against acute pancreatitis (Test Example 8, closed duodenal loop method, lesion scores); format: in vivo, Crj-CD male rats; conditions: sodium salt, 6 hours after ventrotomy; for inhibition in vivo at 10 mg/kg: Rattus norvegicus, 10 mg/kg single intravenous injection
Method: Using Crj-CD male rats, each test group consisted of 3 rats. An experimental acute pancreatitis model was prepared by a closed duodenal loop method under anethesia with halothane (manufactured by Hoechst Japan) and nitrous oxide (manufactured by Sumitomo Seika K.K.) applied by a general inhalation anesthesia machine (Model EM2 and halothane evaporator F-Model). Each compound (subjected to the test in the form of a sodium salt) was continuously intravenously injected into the tail vein in an amount of 0.4 ml/100 g to 0.6 ml/100 g at a rate of 0.05 ml per minute by a pump (Technicon AA II Proportioning Pump III, manufactured by Technicon Instruments Corporation) or rapidly intravenously injected. No injection was made to a control group. Gross pathological examination was conducted upon expiration of 6 hours after the ventrotomy in the case of the group to which the compound was administered. With respect to each of four lesions among pancreatic lesions i.e. petechia, ecchymosis, pancreatic necrosis and abdominal fatty necrosis, the grade and the distribution of lesions were scored with five grades of 0, 0.5, 1, 2 and 3 (severe lesions are 3). The sum of all lesions was designated as scores of pancreatitis lesions, and the sum of the score of petechia and the score of ecchymosis only was designated as scores of hemorrhagic lesions. The pancreatitis inhibition rate (%) and the hemorrhage inhibition rate (%) were obtained by the following formulas, and the results are shown in Table 13. Pancreatitis inhibition rate (%) = (l -(H)/(G)) x 100 [formula] • H: Scores of pancreatitis lesions of the group to which a test compound was administered. • G: Scores of pancreatitis lesions of the control group. Hemorrhage inhibition rate (%) = (l -(J)/(I)) x 100 [formula] • J: Scores of hemorrhagic lesions of the group to which a test compound was administered. • I: Scores of hemorrhagic lesions of the control group.

carrageenin edema = assay: Inhibitory activity on carrageenin edema; format: in vivo, Wistar male rats; conditions: rat; dose 50 mg/kg orally; paw swelling volume three hours after carrageenin
Method: Using Wistar male rats (body weight: about 100 g), each test group consisted of 5 rats. A test compound was mixed with Tween 80 [polyoxyethylenesorbitan monooleate (manufactured by Nacalai Tesque K.K.)], and distilled water was added thereto to obtain a 2% Tween 80 suspension, or it was dissolved in the form of a salt in water to obtain an aqueous solution. Either the suspension or the aqueous solution was orally administered in an amount of 200 mg/kg, 100 mg/kg, 50 mg/kg or 25 mg/kg. One hour later, 0.1 ml of a 1% λ-carrageenin solution dissolved in a physiological saline was injected subcutaneously to the right hind paw of each rat to cause inflamation. Three hours later, the paw volume was measured by a paw volume measuring device (manufactured by Ugobasiee K.K.). A swelling volume was obtained from the difference from the value before the inflammation. Inhibition rate (%) = (l -(F)/(E)) x 100 [formula] • F: Average swelling volume in the group to which a test compound was administered. • E: Average swelling volume in the control group.

[3] = molecular target: T1, Porcine pancreatic phospholipase A2; assay: Phospholipase A2 inhibitory activity, method B (L-α-dipalmitoylphosphatidylcholine substrate); format: biochemical; conditions: 37°C for 30 minutes; for inhibition at 1000 ppm: 1,000 ppm, read-out: % inhibition of PLA2 (1,000 ppm)
Method: To a solution prepared by dissolving 9.2 mg of L-α-dipalmitoylphosphatidylcholine (manufactured by Nichiyu Liposome K.K.) in 0.5 ml of chloroform, a solution prepared by dissolving 32 mg of sodium cholate (manufactured by Wako Pure Chemical Industries, Ltd.) in 0.5 ml of methanol, was added, followed by mixing. The solvent of the mixture was removed under a nitrogen stream, and then 2.5 ml of a 250 mM sodium chloride solution [prepared by dissolving sodium chloride in a 100 mM Tris-HCl buffer solution {tris(hydroxymethyl)aminomethane (manufactured by Nacalai Tesque K.K.) was adjusted to pH8.0 with hydrochloric acid}] was added thereto, and the mixture was dissolved under stirring to obtain a substrate.
as §1
To a 96 well microtitration plate, 20 µl of a solution containing calcium chloride, bovine serum alubmin (manufactured by Sigma Chemical, Co.) and a Tris-HCl buffer solution (pH8.0) at concentrations of 25 mM, 4.5 mg/ml and 100 mM, respectively, 5 µl of a solution prepared by dissolving 10 mg of a test compound in 500 µl of diemthylsulfoxide, followed by an addition of 500 µl of a 200 mM Tris-HCl buffer solution, 5 µl of an enzyme solution (10 µg/ml) [prepared by dissolving the enzyme in a bovine serum alubmin solution (prepared by dissolving bovine serum alubmin in a 100 mM Tris-HCl buffer solution at a concentration of 1 mg/ml)] and 20 µl of the substrate, were added and reacted at 37°C for 30 minutes. After termination of the reaction, the released free fatty acid was quantitatively analyzed in accordance with the ACS-ACOD (acyl CoA synthetase-acyl CoA oxidase) method [a kit of NEFA C test wako (manufactured by Wako Pure Chemical Industries, Ltd.) was used]. The quantitative analysis was made by means of Microplate ELISA Reader (Model 2550EIA Reader, manufactured by Bio-Rad Laboratories) at a wavelength of 540 nm. Separately, such experiments as mentioned above, were carried out at various concentrations (1 µg/ml, 0.75 µg/ml, 0.5 µg/ml and 0.25 µg/ml) of phospholipase A2 without a test compound. Then, the concentration of the free fatty acid versus the concentration of phospholipase A2 was plotted.
as §2

[4] = read-out: Inhibition rate of hemorrhagic lesions (%)
[5] = read-out: Inhibition rate of pancreatitis lesions (%)

T1 sequence (P00592 23-146): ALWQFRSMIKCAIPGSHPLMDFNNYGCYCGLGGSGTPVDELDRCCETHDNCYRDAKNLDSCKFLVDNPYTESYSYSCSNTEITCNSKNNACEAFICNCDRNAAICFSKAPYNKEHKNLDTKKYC

SMILES	inhibition at 1000 ppm [1] [%]	Inhibition rate (%) (carrageenin edema)	inhibition at 1000 ppm [3] [%]	further results
O=C(Nc1ncc(C(F)(F)F)cc1NC(=O)C(Cl)(Cl)Cl)C(F)(F)F [Compound No. 30, N-(3-trichloroacetylamino-5-trifluoromethyl-2-pyridyl)trifluoroacetamide]	87	–	–	–
CS(=O)(=O)Nc1ncc(C(F)(F)F)cc1NC(=O)C(F)(F)C(F)(F)C(F)(F)F [compound 14]	54	–	–	Inhibition rate of hemorrhagic lesions (%) ([2]; 19 mg/kg continuous intravenous injection): 52%
CCOCCC(=O)Nc1cc(C(F)(F)F)cnc1NC(=O)CCOCC [compound 26]	35	–	–	–
O=C(Nc1ncc(C(F)(F)F)cc1NC(=O)C(F)(F)F)C(Cl)Cl [compound 27]	62	–	–	–
O=C(Nc1cc(C(F)(F)F)cnc1NC(=O)C(Cl)Cl)C(Cl)Cl [compound 28]	71	25	–	–
O=C(Nc1cc(C(F)(F)F)cnc1NC(=O)C(F)(F)F)C(Cl)Cl [compound 29]	47	–	–	–
O=C(Nc1cc(C(F)(F)F)cnc1NC(=O)C(F)(F)C(F)(F)F)c1ccccc1 [compound 32]	50	–	–	–
CCOC(=O)Nc1ncc(C(F)(F)F)cc1NC(=O)OCc1ccccc1 [compound 38]	35	–	–	–
COc1ccc(C(=O)Nc2cc(C(F)(F)F)cnc2NS(C)(=O)=O)cc1 [compound 44]	43	–	64	–
CS(=O)(=O)Nc1ncc(C(F)(F)F)cc1NC(=O)CCCCCl [compound 46]	47	30	–	Inhibition rate of hemorrhagic lesions (%) ([2]; 46 mg/kg continuous intravenous injection): 36%
CCS(=O)(=O)Nc1ncc(C(F)(F)F)cc1NC(=O)c1ccccc1 [compound 48]	48	–	–	–
CC(C)S(=O)(=O)Nc1ncc(C(F)(F)F)cc1NC(=O)C(Cl)(Cl)Cl [compound 50]	78	–	–	–
CC(C)S(=O)(=O)Nc1ncc(C(F)(F)F)cc1NC(=O)C(F)(F)C(F)(F)F [compound 51]	63	–	–	–
CCCCS(=O)(=O)Nc1ncc(C(F)(F)F)cc1NC(=O)C(F)(F)C(F)(F)F [compound 52]	49	–	–	–
CCCCS(=O)(=O)Nc1ncc(C(F)(F)F)cc1NC(=O)C1CCCCC1 [compound 53]	37	–	100	–
CCOC(=O)NC(=S)Nc1cc(C(F)(F)F)cnc1NC [compound 54]	37	–	–	–
CS(=O)(=O)Nc1ncc(C(F)(F)F)cc1NC(=O)c1cccc(F)c1 [compound 58]	74	–	42	inhibition in vivo at 10 mg/kg [2, 4]: 70%; inhibition in vivo at 10 mg/kg [2, 5]: 51%
CCCCC(CC)C(=O)Nc1cc(C(F)(F)F)cnc1NS(C)(=O)=O (centres unmarked) [compound 65]	–	37	71	inhibition in vivo at 10 mg/kg [2, 4]: 67%; inhibition in vivo at 10 mg/kg [2, 5]: 74%
CCC(C(=O)Nc1cc(C(F)(F)F)cnc1NS(C)(=O)=O)c1ccccc1 (centres unmarked) [compound 66]	–	31	52	inhibition in vivo at 10 mg/kg [2, 4]: 53%; inhibition in vivo at 10 mg/kg [2, 5]: 63%
CC(C)S(=O)(=O)Nc1ncc(C(F)(F)F)cc1NC(=O)c1cccc(F)c1 [compound 104]	–	48	61	–
CCCCCC(=O)Nc1cc(C(F)(F)F)cnc1NS(=O)(=O)N(C)C [compound 110]	–	25	58	–
CCCOC(=O)Nc1cc(C(F)(F)F)cnc1NS(=O)(=O)N(C)C [compound 114]	–	28	53	inhibition in vivo at 10 mg/kg [2, 4]: 32%; inhibition in vivo at 10 mg/kg [2, 5]: 27%
CS(=O)(=O)Nc1ncc(C(F)(F)F)cc1NC(=O)c1ccc2c(c1)CCCC2 [compound 123]	–	42	86	inhibition in vivo at 10 mg/kg [2, 4]: 56%; inhibition in vivo at 10 mg/kg [2, 5]: 56%
CCCCCCCC(=O)Nc1cc(C(F)(F)F)cnc1NS(C)(=O)=O [compound 125]	–	22	86	–
CS(=O)(=O)Nc1ncc(C(F)(F)F)cc1NC(=O)c1ccc(F)cc1 [compound 259]	–	17	–	% inhibition of PLA2 (1,000 ppm) [3]: 61%

— EP0465913B1, “Diaminotrifluoromethylpyrimidine derivatives, process for their production and phospholipase A2 inhibitor containing them” (ISHIHARA SANGYO KAISHA, LTD., priority 1990, dated 1992)
